{
  "source": "patent US11629165B2",
  "about": "“Molecules for targeting ribosomes and ribosome-interacting proteins, and uses thereof” (Immagina Biotechnology S.r.l., priority 2018, dated 2023)",
  "assay_type_in_all_cases": "cell-based",
  "key": {"[1]": {"tested_on": "cellular proteins of HEK-293 and MCF7 cell lines", "test": "3Px probe protein labelling, UV irradiation, anti-puromycin immunoblot", "experimental": "For our initial analysis, we treated HEK-293 and MCF7 cell lines in complete culture medium with the 3PB probe (10 μM) for 10 min, followed by irradiation for 5 min on ice (total power: 0.75 J/cm2). We first assessed 3PB labeling of cellular proteins using SDS-PAGE analysis. […] Then, we compared the labelling activity of 3PB, 3PA and 3PBis in HEK293 and MCF7 cells, adding the probes before or after cell lysis. In the latter case, each probe is incubated for 1 h in the cytoplasmic cell extract at 4° C., followed by UV irradiation (0.75 J/cm^2) of the treated lysate. […] Therefore, both 3PB and 3PBis show additional bands with MW=˜50 kDa, when reacted in the cell lysate, with respect to the situation when probes are incubated with growing cells (FIG. 6a). […] This is presumably due to the higher hydrophobicity of the 3PBis probe and a consequent better cell membrane penetration (FIG. 7).\nTo test 3PN and 3PO activity, we treated MCF7 cells with different concentrations of the two drugs for 10 min, followed by UV-356 irradiation.\nReaction in cell culture: MCF7 or HEK-293 cells were grown to 80% of confluence and treated with CHX (10 μg/mL, 5 min, 37° C.) and then with the probe (10 min, 37 C). Cells were then washed with cold PBS (containing CHX 10 μg/mL), placed on ice and irradiated under a UV lamp (BLX-365, 5×8 W) at 365 nm for 5 min (0.75 J/cm^2) followed by lysis with hypotonic cytoplasmic buffer. Reaction in the cell lysate: HEK-293 or MCF7 cells were treated with CHX (10 μg/mL, 5 min). After hypotonic lysis and precipitation of nuclei and cellular debris by centrifugations at 18000 g, 4° C., 5 min, the supernatant was diluted to A260=1 a.u/μL with 10 mM NaCl, 10 mM MgCl2, 20 μg/mL cycloheximide, 10 mM Hepes, pH 7 in DEPC water, to a final volume of 150 μL. The diluted lysate was then incubated with the reactive probe for 1 hour in a 12-well plate and then UV-irradiated (BLX-365) at 365 nm for 5 min (0.75 J/cm2).\nCell lysates were prepared as described above. Proteins were separated by SDS-polyacrylamide gel electrophoresis and transferred onto PVDF membranes. […]"}, "MCF7 cells [2]": {"tested_on": "MCF7 cells", "test": "Probe labelling after puromycin/CHX treatment, CuAAC Cy3-azide, in-gel fluorescence", "details": "MCF7, puromycin 20 and 100 μM 2 hours; 3PB 100 μM or 3PBis 50 μM, 10 min", "experimental": "Next, we asked if the labelling is sensitive on puromycin treatment (i.e. dependent on ribosome activity). To do that, we first treated MCF7 cell with puromycin followed by 10 min incubation with 3PB or 3PBis. When used in minimal amounts, puromycin can be incorporated in neosynthesized proteins^25, while high concentrations as well as long incubation times, fully block translation. We first define the concentration that allows puromycin to be incorporated in the nascent peptide chain (i.e. 20 μM), and the range of concentrations that completely depress translation in our biological model (i.e. 50 μM, 100 μM and 200 μM, FIG. 10a). We treat MCF7 cells with both 20 and 100 μM puromycin for 2 hours before adding 3PB (100 μM, 10 min) or 3PBis (50 μM, 10 min). Probe-labeled proteins were coupled to a Cy3-azide reporter tag using CuAAC chemistry, separated by SDS-PAGE and detected by in-gel fluorescence scanning. We observed about 50% reduction of the labelling at 65 kDa after puromycin treatment for both probes (FIG. 5c-d). […] To better understand if the labelling is related to the activity of the ribosomal peptidyl transferase centre (PTC), we pre-treated cells with high concentrations of CHX (350 μM) before adding puromycin (100 μM) to fully block the ribosome catalytic activity^8. […]"}, "MCF7 cells [3]": {"tested_on": "MCF7 cells", "test": "Polysome profiling of probe-treated cells", "details": "MCF7, 50 μM, 10 min", "experimental": "To better understand the effect of 3Px on the global translation efficiency, we compared the polysome profiles from DMSO and probes-treated cells. By treating MCF7 cells with 50 μM 3PBis or 3PB for 10 min, we observed a 10% reduction of the polysome/80S ratio (calculated by comparing the area under the 80S peak and the combined area under the polysome peaks, FIG. 11a). This effect is independent from the UV-treatment. Incubation of 3PB and 3PBis for longer times (7 hours or 18 hours) results in a depression of the polysome/80S area ratio of >50%, meaning that treatments with 3PBis can depress translation, increasing the 80S pick and reducing heavy polyribosomes (FIG. 11b).\nCells were incubated for 5 minutes with cycloheximide 10 μg/mL at 37° C. to trap the ribosomes on the mRNAs. Cells were then washed with PBS complemented with cycloheximide (10 μg/mL) and scraped directly on the plate with 300 μL of lysis buffer (10 mM NaCl, 10 mM MgCl2, 10 mM Tris-HCl, pH 7.5, 1% Triton X-100, 1% sodium deoxycholate, […], 5 U/mL DNAse I, 200 U/mL RNase inhibitor, and 10 μg/mL cycloheximide, protease inhibitor). Nuclei and cellular debris were removed by three consecutive centrifugations (800 g, 5 min at 4° C.). […] The fraction corresponding to the 40S, 60S and 80S peaks and those corresponding to polysomes were collected monitoring the absorbance at 254 nm. […]"}, "[4]": {"tested_on": "ATP-binding site of GRP78", "test": "Competition with VER-155008 on probe labelling", "details": "MCF7, VER-155008 100 μM 1 hour before probe", "experimental": "In total, 114 protein targets were identified from in-column digestion (called data set 1, n=4), 204 targets from in-gel digestion (called data set 2, n=4) and 1085 from in-bead digestion (called data set 3, n=2, FIG. 12c). The 3PB-beads pull down reflects the “double band” pattern observed with the incubation of 3PB/3PBis in the cell lysate (FIG. 12b). To increase the stringency of our in-beads digestion data set, we performed an enrichment analysis over control Peg-beads (n=2) and we identified 333 proteins setting a cut-off fold-enrichment (FC)≥1.3 between 3PB- and Peg-beads, while 166 proteins are identified with a FC≥2.5. By using the less stringent filter (FC≥1.3) and looking for proteins in common in the three data set, we identified 15 proteins as putative 3PB targets. These factors are known to be involved in tRNAs selection and ribosome elongation (eEF1A, eEF2, eEF4G), ribosome structure (RPL18), protein folding (HSP5A, HSP90AB1, PPIA), metabolism (PHGFH, ENO1, GAPDH, ALB), RNA processing (HNRNPK) and cellular structure (KRT2, KRT10, ACTB). […] After pull-down assay using avidin-magnetic beads (FIG. 12e and FIG. 13a) we observed the presence of the lower HSPA5/GRP78 band, while the upper band (although dominant in the input) was not detected. […]"}, "28S ribosomal RNA": {"tested_on": "28S ribosomal RNA", "test": "Labelling of rRNA by 3PBis, Cy3 in-gel fluorescence", "details": "MCF7, Cy3 conjugation, total RNA agarose gel", "experimental": "FIG. 20. 3PBis-ribosome interaction and labelling of 28S rRNA. MCF7 cells were incubated with 3PBis, fixed and conjugated with Cy3. After extraction, total RNA was run in agarose gel and stained with Syber gold or visualized by in-gel fluorescence scanning.\nWe investigated the possibility that 3Px molecules directly reacts in the ribosome itself. If 3Px enters the ribosome as puromycin does, it should bind only the large ribosomal subunit, and in particular the rRNA 28S that form the catalytic pocket of the ribosome."}, "MCF7 cells [5]": {"tested_on": "MCF7 cells", "test": "Puromycin concentration effect on translation, puromycin immunoblot", "details": "MCF7, 2 hours", "experimental": "FIG. 10. Effect of ribosome inhibitors on 3PB/3PBis binding. (a) Immunoblot of puromycin on total protein extracts from, MCF7 cell treated with increasing concentrations of puromycin (incubation time: 2 hours). CHX+Puro: 350 μM CHX before puromycin treatment (20, 50, 100, 200 μM). 3PBis treatment: (50 μM, 10 min); −, not treatment. (b) On the left, immunoblot with anti-puromycin antibody on total protein extracts from MCF7 cells treat with the indicated drugs. CHX, 350 μM, 5 min; Puromycin, 100 μM, 2 hours; 3PB, 50 μM, 10 min. On the right, CuAAC coupling with Biotin-azide was performed on the cell lysate before total protein extract and SDS-PAGE. The staining of the membrane was performed with Streptavidin-HRP. (c) Sketch that summarize the effect of puromycin treatment on the 3PB-3PBis labelling.\nNext, we asked if the labelling is sensitive on puromycin treatment (i.e. dependent on ribosome activity). To do that, we first treated MCF7 cell with puromycin followed by 10 min incubation with 3PB or 3PBis. When used in minimal amounts, puromycin can be incorporated in neosynthesized proteins^25, while high concentrations as well as long incubation times, fully block translation. […] Probe-labeled proteins were coupled to a Cy3-azide reporter tag using CuAAC chemistry, separated by SDS-PAGE and detected by in-gel fluorescence scanning. […]"}},
  "data": [
    {"smiles": "C#CCOCCC(=O)NCCOCCOCCNC(=O)N[C@@H](Cc1ccc(OC)cc1)C(=O)N[C@H]1C(OC(=O)OCCC2(C)N=N2)C(n2cnc3c(N(C)C)ncnc32)O[C@@H]1COC(=O)OCCC1(C)N=N1", "note": "(some centres unmarked) [3PBis]", "values": [
      {"measurement": "protein labeling signal", "setting": "[1]; HEK293 and MCF7, probes added before or after cell lysis, UV 0.75 J/cm2", "value": "concentration-dependent increases in protein labeling"},
      {"measurement": "functional (binding) activity", "setting": "[1]; depending on position of UV-active diazirine on ribose", "value": "possess the functional activity"},
      {"measurement": "reduction of the labelling at 65 kDa after puromycin treatment", "setting": "MCF7 cells [2]", "value": "about 50%"},
      {"measurement": "reduction of the polysome/80S ratio", "setting": "MCF7 cells [3]", "value": 10, "unit": "%"},
      {"measurement": "reduction of probe labelling by VER-155008", "setting": "[4]", "value": 1.2, "unit": "×"},
      {"measurement": "interaction with 28S rRNA", "setting": "28S ribosomal RNA", "value": "directly interact with the 28S ribosomal RNA"}
    ]},
    {"smiles": "C#CCOc1cc(C2(C(F)(F)F)N=N2)ccc1C(=O)N[C@@H](Cc1ccc(OC)cc1)C(=O)N[C@H]1[C@@H](O)[C@H](n2cnc3c(N(C)C)ncnc32)O[C@@H]1CO", "note": "[3PN]", "values": [
      {"measurement": "labelling efficiency after anisomycin and arsenite pre-treatment", "setting": "[1]; MCF7, FIG. 8a", "value": "strong reduction"}
    ]},
    {"smiles": "COc1ccc(C[C@H](N)C(=O)N[C@H]2[C@@H](O)[C@H](n3cnc4c(N(C)C)ncnc43)O[C@@H]2CO)cc1", "note": "[puromycin, Puromycin]", "values": [
      {"measurement": "concentration that allows puromycin to be incorporated in the nascent peptide chain", "setting": "MCF7 cells [5]", "value": 20, "unit": "µM"}
    ]}
  ]
}
